Literature values, collected in US6689455B2, “Method of producing hexagonal ferrite and magnetic recording medium using said hexagonal ferrite” (Fuji Photo Film Co., Ltd., priority 2001, dated 2004).

Settings: for pKa: value in parentheses after the compound name, acetic acid: 2 mol/l aqueous solution; for Organic matter pKa value: organic matter used to treat the ferrite powder, Tables 1 and 2; for pKa1: first dissociation of dicarboxylic acids

| pKa1 | Compound | pKa | Organic matter pKa value |
| --- | --- | --- | --- |
| – | O=S(=O)(O)c1ccccc1 [benzenesulfonic acid] | 2.55 | – |
| – | O=C(NO)c1ccccc1 [benzohydroxamic acid] | 2.3 | – |
| – | O=P([O-])([O-])CN(CCN(CCN(CP(=O)([O-])[O-])CP(=O)([O-])O)CP(=O)([O-])O)CP(=O)([O-])O.[Na+].[Na+].[Na+].[Na+].[Na+].[Na+].[Na+] [heptasodium diethylenetriamine-pentamethylene phosphonate] | – | 1.8 |
| – | O=P(O)(O)Oc1ccccc1 [phenoxyphosphonic acid] | 1.95 | 2.0 |
| – | O=P(O)(O)c1ccccc1 [phenylphosphonic acid] | 1.8 | 1.8 |
| 2.75 | O=C(O)c1ccccc1C(=O)O [phthalic acid] | – | – |
| – | NS(=O)(=O)O [sulfaminic acid] | 1.65 | – |
| 3.54 | O=C(O)c1ccc(C(=O)O)cc1 [terephthalic acid] | – | – |
